Data reported in patent publication US20240190857A1, “METHODS FOR MANUFACTURE OF SMALL MOLECULE ACTIVATORS OF TIE-2” (EyePoint Pharmaceuticals, Inc., priority 2020, published 2024).
In brackets after ≈: the same amount, converted by molar mass. Read-outs that look alike come from different tables or passages of the source.

Test: Solubility of compounds in various solvents
Format: physicochemical
Settings: for solubility: organic solvent or mixture, read-out: Observation: solubility / saturation concentration (S.C.)

solubility (17 °C, DMF, 17-22° C.) [mg/mL] | solubility (17 °C, Toluene, 17-22° C.) [mg/mL] | solubility (50 °C, THF, 50-55° C.) [mg/mL] | solubility (60 °C, 2-MeTHF, 60-65° C.) [mg/mL] | Compound | Observation: solubility / saturation concentration (S.C.) (MeOH, 17-22° C.) | solubility (17 °C, Acetone, 17-22° C.) [mg/mL] | solubility (17 °C, Acetone:H2O (80:20), 17-22° C.) [mg/mL] | solubility (17 °C, DMSO, 17-22° C.) [mg/mL] | solubility (17 °C, MeOH, 17-22° C.) [mg/mL] | solubility (17 °C, THF, 17-22° C.) [mg/mL]
– | – | – | – | CN(C)C.COC(=O)N[C@@H](Cc1ccccc1)C(=O)N[C@@H](Cc1ccc(NS(=O)(=O)O)cc1)c1csc(-c2cccs2)n1 [Compound F-5, trimethylammonium (4-((S)-2-((S)-2-((methoxycarbonyl)amino)-3-phenylpropanamido)-2-(2-(thiophen-2-yl)thiazol-4-yl)ethyl)phenyl)sulfamate] | Soluble at 93 mg/mL | – | – | – | – | –
– | – | – | – | COC(=O)N[C@@H](Cc1ccccc1)C(=O)N[C@@H](Cc1ccc(NS(=O)(=O)[O-])cc1)c1csc(-c2cccs2)n1.[Na+] [Compound 1, sodium (4-((S)-2-((S)-2-((methoxycarbonyl)amino)-3-phenylpropanamido)-2-(2-(thiophen-2-yl)thiazol-4-yl)ethyl)phenyl)sulfamate] | – | < 60 | ≥ 53 | ≥ 106 | ~30 | < 40
≥ 100 | < 5 | ~100 (≈ 186 mM) | ~15 (≈ 28 mM) | COC(=O)N[C@@H](Cc1ccccc1)C(=O)N[C@@H](Cc1ccc([N+](=O)[O-])cc1)c1csc(-c2cccs2)n1 [Compound F-3, methyl ((S)-1-(((S)-2-(4-nitrophenyl)-1-(2-(thiophen-2-yl)thiazol-4-yl)ethyl)amino)-1-oxo-3-phenylpropan-2-yl)carbamate] | – | – | – | – | – | ~5 (≈ 9.32 mM)
